Measured values: BindingDB's records for doi:10.1080/14756360109162352 (Universit&Agrave, 2001)

Target: T1, Neutrophil elastase (Homo sapiens, UniProt P08246)
T1 sequence (P08246 whole entry): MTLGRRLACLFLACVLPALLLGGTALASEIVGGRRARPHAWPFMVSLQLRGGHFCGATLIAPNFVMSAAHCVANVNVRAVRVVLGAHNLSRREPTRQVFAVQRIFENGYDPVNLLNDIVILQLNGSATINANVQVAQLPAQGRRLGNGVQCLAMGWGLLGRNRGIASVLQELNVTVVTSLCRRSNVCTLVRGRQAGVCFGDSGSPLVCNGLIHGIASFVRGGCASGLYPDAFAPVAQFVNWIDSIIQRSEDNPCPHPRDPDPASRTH
Test: Enzyme Assay
Conditions: 25 °C
Protocol: The enzyme were assayed spectrophotometrically at 410nm with p-nitroanilide substrates at 25 C.

Row | Structure (SMILES) | Ki
1 | Cc1nn(-c2ccccc2[N+](=O)[O-])c2c1NOC(=O)N2 [Pyrazolooxadiazinone, 2g] | > 8400 µM
2 | Cc1nn(-c2ccccc2)c2c1NOC(=O)N2 [Pyrazolooxadiazinone, 2a] | 94 µM
3 | Cc1nn(C)c2c1NOC(=O)N2 [Pyrazolooxadiazinone, 2b] | 207 µM
4 | CCCCc1nn(C)c2c1NOC(=O)N2 [Pyrazolooxadiazinone, 2l] | 113 µM
5 | CCc1nn(C)c2c1NOC(=O)N2 [Pyrazolooxadiazinone, 2j] | 199 µM
6 | Cc1nn(-c2cccc([N+](=O)[O-])c2)c2c1NOC(=O)N2 [Pyrazolooxadiazinone, 2h] | > 8400 µM
7 | Cc1nn(-c2ccc(Cl)cc2)c2c1NOC(=O)N2 [Pyrazolooxadiazinone, 2c] | 87 µM
